Experimental data from US10472663B2, “Procedure for the rapid determination of bacterial susceptibility to antibiotics that inhibit protein synthesis” (ABM TECHNOLOGIES, LLC, priority 2015, dated 2019).

Tests used:
Assay type in all cases: cell-based
[1] = test system: Escherichia coli; experiment: Micromax assay of ciprofloxacin-induced DNA fragmentation after a protein synthesis inhibitor (Example 1)
Description: As an exemplification of the principals previously described, two strains of Escherichia coli exponentially growing in Mueller-Hinton broth were assayed (FIGS. 1-6). The first strain of Escherichia coli was a TG1 strain susceptible to both the aminoglycoside tobramycin (an inhibitor of protein synthesis) and the quinolone ciprofloxacin (an agent which induces DNA fragmentation by trapping of topoisomerases in DNA) (FIGS. 1-3). The second strain was a clinical isolate resistant to tobramycin and susceptible to ciprofloxacin (FIGS. 4-6). Four treatments were applied to each strain to rapidly distinguish the susceptible and the resistant strain to tobramycin.
One portion of both bacterial strains was incubated with tobramycin at 4 μg/ml for 40 minutes (FIGS. 1 and 4), a dosage indicated by the CLSI as the breakpoint of susceptibility to tobramycin in the standard antibiogram based on microdilution. Another portion of both strains was incubated with ciprofloxacin at 1 μg/ml for 30 min (FIGS. 2 and 5). Still another portion of both strains was incubated with tobramycin at 4 μg/ml for 10 min followed by ciprofloxacin at 1 μg/ml for 30 min, without removing the tobramycin (FIGS. 3 and 6). A final portion was left with no antibiotic.
After each incubation cells were processed using the variant of the Micromax technology to visualize the nucleoids, i.e. bacterial chromosomal DNA, in all the cells of the population. Cells from each culture were immersed in an agarose microgel on a slide and incubated with a specific lysing solution to remove the cell wall in all the cells and release in the microgel the nucleoids contained inside the bacteria. These are dried, stained with a high sensitive fluorochrome for DNA like SYBR Gold and visualized under fluorescence microscopy. FIGS. 1-6 depicts representative images captured under each of the conditions described below.
The above described methodology was employed to rapidly determine the susceptibility of 12 strains of E. coli to tobramycin. One portion of each bacterial strain was incubated with tobramycin at the susceptibility breakpoint dosage, 4 μg/ml, for 40 min. A portion of each strain was incubated with ciprofloxacin at 1 μg/ml for 30 min. Still another portion of each strain was incubated with tobramycin at 4 μg/ml for 10 min followed by ciprofloxacin at 1 μg/ml for 30 min, without removing the tobramycin. A final portion of each strain was left with no antibiotic. E. coli strains were identified as susceptible or not based on the levels of DNA fragmentation in the portion of each strain incubated with ciprofloxacin and the portion incubated with tobramycin and ciprofloxacin.
The principals exemplified in Example 1 were confirmed with the aminoglycoside amikacin. Briefly, a susceptible and resistant strain of E. coli were exposed to similar conditions to those described in Example 1, except that amikacin was utilized as the protein synthesis inhibiting antibiotic. Specifically, each was strain subjected to four treatments. One portion received no antibiotics, and another portion received only a quinolone, such as ciprofloxacin or norfloxacin to induce DNA fragmentation. Still another portion received the protein synthesis inhibiting antibiotic aminoglycoside amikacin, followed by the quinolone. Another portion received only amikacin. A final portion received neither antibiotic.
The principals exemplified in Example 1 were further confirmed with the aminoglycoside gentamicin. Briefly, the rapid test was performed on 15 isolated E. coli strains according to the methodology described above, except that gentamicinin was utilized as the protein synthesis inhibiting antibiotic. Suppressed DNA fragmentation were used to characterize bacterial susceptibility and those characterizations were verified with the standard antibiogram for gentamicin by microdilution. […]

[2] = test system: Pseudomonas aeruginosa; experiment: Variant Micromax assay of cell enlargement by ceftazidime after tobramycin (Example 7); conditions: ceftazidime alone 0.5 μg/ml 60 minutes; both strains
Description: As an example, two strains of Pseudomonas aeruginosa exponentially growing in Mueller-Hinton broth were assayed. These strains were both susceptible to the β-lactam ceftazidime, which inhibits peptidoglycan synthesis. One strain was susceptible and the other resistant to the aminoglycoside tobramycin (an inhibitor of protein synthesis). For the purpose of rapidly distinguishing the susceptible and the resistant strain to tobramycin each strain was subjected to four treatments.
A portion of each strain was incubated with tobramycin at 4 μg/ml (the CLSI breakpoint of susceptibility) for 75 minutes. An assay of this portion is depicted at FIGS. 31 and 34. Another portion of each strain was incubated with ceftazidime at 0.5 μg/ml for 60 minutes. An assay of this portion is depicted at FIGS. 32 and 35. Still another portion of both strains was incubated with tobramycin at 4 μg/ml for 15 minutes followed by ceftazidime at 0.5 μg/ml for 60 minutes, without removing the tobramycin. Assays of these strains can be seen at FIGS. 33 and 36, respectively. A final portion of each strain was not treated with either antibiotic.
After incubation with the antibiotics, cells were processed using a variant Micromax technology to visualize the enlargement or not of the bacteria. Samples from each culture were immersed in an agarose microgel on a slide, dried, stained with a high sensitive fluorochrome for DNA like SYBR Gold and visualized under fluorescence microscopy to visualize cell shape and size.

[3] = test system: Enterococcus faecalis; experiment: Variant Micromax assay of cell lysis by lysozyme after erythromycin (Example 6)
Description: As an example, two strains of Enterococcus faecalis exponentially growing in Mueller-Hinton broth were incubated under four different conditions and then assayed. […] Each strain was subjected to four treatments for the purpose of rapidly distinguishing the susceptible and the resistant strain to erythromycin.
The dose was that indicated by the CLSI as the breakpoint of susceptibility to erythromycin in the standard antibiogram based on microdilution. Another portion of both strains was incubated with lysozyme 1 mg/ml, 10 min at 37° C. […]
(§1) After incubation with lysozyme, the cells were processed using a variant of the Micromax technology to visualize the nucleoids, i.e. spreading of the bacterial chromosomal DNA, in all the cells of the population. Samples from the cultures were immersed in an agarose microgel on a slide and incubated with a specific lysing solution to remove the cell wall in all the cells and release in the microgel the nucleoids contained inside the bacteria. These are dried, stained with a highly sensitive fluorochrome for DNA like SYBR Gold and visualized under fluorescence microscopy.

[4] = test system: Pseudomonas aeruginosa; experiment: Variant Micromax assay of cell wall damage by meropenem after tobramycin (Example 5); conditions: meropenem alone 0.2 μg/ml 60 min; both strains
Excerpt: As an exemplification of this principal, FIGS. 19-24 illustrates assays of two strains of Pseudomonas aeruginosa exponentially growing in Mueller-Hinton broth. Both strains were both susceptible to the β-lactam meropenem, which inhibits peptidoglycan synthesis. One strain was susceptible (FIGS. 19-21) and the other resistant (FIGS. 22-24) to the aminoglycoside tobramycin (inhibitor of protein synthesis).
For the purpose of rapidly distinguishing susceptible and resistant (i.e. non-susceptible) strains to tobramycin each strain was subjected to four treatments. A portion of each strain was incubated with tobramycin at 4 μg/ml for 75 min (FIGS. 19 and 22). The dose utilized, was indicated by the CLSI as the breakpoint of susceptibility to tobramycin. FIGS. 20 and 23 illustrate an assay from another portion of each strain, which was incubated with Meropenem at 0.2 μg/ml for 60 min. FIGS. 21 and 24, illustrate assays from still another portion of both strains which was incubated with tobramycin at 4 μg/ml for 15 min followed by meropenem at 0.2 μg/ml for 60 min, without removing the tobramycin. Still another portion of both strains was maintained without the addition of either antibiotic.
After incubation cells were processed using a variant Micromax technology to visualize the affectation or not of the cell wall based on the release or not of the nucleoids contained inside the bacteria. In the same manner described previously, samples from cells from the culture are immersed in an agarose microgel on a slide and incubated with a specific lysing solution that removes the cell wall only in those bacteria whose peptidoglycan was affected, thus releasing in the microgel the nucleoids contained inside. […] The processed bacteria in microgel are dried, stained with a high sensitive fluorochrome for DNA like SYBR Gold and visualized under fluorescence microscopy.

[5] = test system: Escherichia coli; experiment: Micromax assay of mitomycin C-induced DNA fragmentation after tobramycin (Example 2); conditions: mitomycin C alone 50 μg/ml 60 min; both strains
Description: FIGS. 7-9 depict a TG1 strain susceptible to the aminoglycoside tobramycin, an inhibitor of protein synthesis, and mitomycin C, an agent which induces DNA damage. The other strain illustrated in FIGS. 10-12 was a clinical isolate resistant to tobramycin.
One portion of both bacterial strains was incubated with tobramycin at 4 μg/ml for 90 min (FIGS. 7 and 10), a dosage indicated by the CLSI as the breakpoint of susceptibility to tobramycin in the standard antibiogram based on microdilution. Another portion of both strains was incubated with mitomycin C at 50 μg/ml for 60 min (FIGS. 8 and 11). Still another portion of both strains was incubated with tobramycin at 4 μg/ml for 30 min followed by mitomycin C at 50 μg/ml for 60 min, without removing the tobramycin (FIGS. 9 and 12). A final portion was left with no antibiotic.
as §1, with “incubation,” for “incubation with lysozyme, the”, “visualize” for “visualize the”, “i.e.” for “i.e. spreading of the”, “from cells from” for “from”, “culture are” for “cultures were”, “microscopy, Nucleoids from E. coli obtained using the Micromax assay are represented in FIGS. 7-12, FIGS. 7-9 correspond to a strain susceptible to tobramycin (TG1) and FIGS. 10-12 to a strain resistant to tobramycin.” for “microscopy.”

[6] = test system: Escherichia coli; experiment: Variant Micromax assay of cell enlargement by low-dose mitomycin C after tobramycin (Example 8); conditions: mitomycin C alone 0.5 μg/ml 60 minutes; both strains
Description: As an example, two strains of Escherichia coli exponentially growing in Mueller-Hinton broth were incubated under four different conditions and then assayed. One strain was susceptible and the other resistant to the aminoglycoside tobramycin (an inhibitor of protein synthesis). For the purpose of rapidly distinguishing susceptible and non-susceptible strains to tobramycin each strain was incubated under four conditions.
A portion of each strain was incubated with tobramycin at 4 μg/ml for 90 minutes. As described previously, this dose is indicated by the CLSI as the breakpoint of susceptibility to tobramycin in the standard antibiogram based on microdilution. Another portion of both strains was incubated in Mitomycin C at 0.5 μg/ml for 60 minutes. Still another portion of each strain was incubated with tobramycin at 4 μg/ml for 30 minutes followed by mitomycin C at 0.5 μg/ml for 60 minutes, without removing the tobramycin. A final portion of both strains was not incubated with either antibiotic.
After the incubation, cells were processed using a variant Micromax technology to visualize any enlargement or not of the bacteria. Samples from cells from the culture were immersed in an agarose microgel on a slide, dried, stained with a highly sensitive fluorochrome for DNA like SYBR Gold and visualized under fluorescence microscopy to visualize cell shape and size. Images were similar those correspondent to the previous figure.

[7] = test system: Staphylococcus aureus; experiment: Micromax assay of DNA fragmentation by DNase released with lysostaphin after azithromycin (Example 3); conditions: lysostaphin alone 10 μg/ml 1 min; both strains
Description: In an exemplification of this principal, two strains of S. aureus growing in Mueller-Hinton agar with 5% sheep blood were assayed. One strain was susceptible to the macrolide azithromycin (an inhibitor of protein synthesis) (FIGS. 13-15) and the other strain was a clinical isolate resistant to azithromycin (FIGS. 16-18). The purpose was to rapidly distinguish susceptible and non-susceptible strains to azithromycin. Cultures were processed direct from standard growing agar plates 18-24 h and it was not necessary the cells being exponentially growing previously to the assay.
Each of these strain was subjected to four treatments. One portion of both strains was incubated with azithromycin at 2 μg/ml for 120 min; 2 μg/ml being indicated by the CLSI as the breakpoint of susceptibility to azithromycin. The cells were then lysed to release nucleoids and images of FIGS. 13 and 16 were generated. Another portion of each strain was incubated with lysostaphin at 10 μg/ml for 1 min. FIGS. 14 and 17 depict the nucleoids released in each strain for this treatment. Still another portion was incubated with Azithromycin at 2 μg/ml for 120 min followed by lysostaphin at 10 μg/ml for 1 min, without removing the azithromycin. The assays for these treatments can be seen at FIGS. 15 and 18. A final portion was left without either antibiotic.
After the incubation, the cells were processed using the variant of a Micromax technology to lyse cells with affected cell walls. As indicated previously, samples from cells from the culture are immersed in an agarose microgel on a slide and incubated with a specific lysing solution to remove the cell wall in those cells affected by lysostaphin and release in the microgel the nucleoids contained inside the bacteria. These are dried, stained with a highly sensitive fluorochrome for DNA like SYBR Gold and visualized under fluorescence microscopy.

[8] = rapid test, confirmed by microdilution antibiogram, 12 strains for tobramycin, 15 for gentamicin

With `NCC[C@H](O)C(=O)N[C@@H]1C[C@H](N)[C@@H](O[C@H]2O[C@H](CN)[C@@H](O)[C@H](O)[C@H]2O)[C@H](O)[C@H]1O[C@H]1O[C@H](CO)[C@@H](O)[C@H](N)[C@H]1O` [amikacin] the “outcome of rapid susceptibility test with another protein synthesis inhibitor” value ([1]; inhibitor followed by a quinolone, susceptible and resistant E. coli) was “successfully determined”.
With `CC(C)(O/N=C(\C(=O)N[C@@H]1C(=O)N2C(C(=O)[O-])=C(C[n+]3ccccc3)CS[C@H]12)c1csc(N)n1)C(=O)O` [ceftazidime] the cell enlargement [2] was “significant cell enlargement”.
With `O=C(O)c1cn(C2CC2)c2cc(N3CCNCC3)c(F)cc2c1=O` [ciprofloxacin] the “inhibitory response on lysis by lysozyme” value ([3]; incubation with quinolones instead of a protein synthesis inhibitor) was “has not been obtained” and the “DNA fragmentation of nucleoids” value ([1]; ciprofloxacin alone 1 μg/ml 30 min, both strains) was “nucleoids with extensive fragmented DNA”.
With `C[C@@H](O)[C@H]1C(=O)N2C(C(=O)O)=C(S[C@@H]3CN[C@H](C(=O)N(C)C)C3)[C@H](C)[C@H]12` [meropenem] the “release of nucleoids (cell wall damage)” value [4] was “releasing of nucleoids due to affectation of the cell wall”.
With `CO[C@@]12[C@H](COC(N)=O)C3=C(C(=O)C(C)=C(N)C3=O)N1C[C@@H]1N[C@@H]12` [mitomycin C] the “DNA fragmentation of nucleoids” value [5] was “nucleoids with fragmented DNA in both strains” and the cell enlargement [6] was “significant cell enlargement”.
gentamicin was tested, and the “E. coli strains identified as non-susceptible (resistant)” value [1, 8] was 5 and the “E. coli strains identified as susceptible” value [1, 8] was 10.
With lysostaphin the “DNA fragmentation of released nucleoids” value [7] was “release of nucleoids with a large extent of DNA fragmentation”.
With lysozyme the “partially lysed cells with spreading nucleoid fibers” value ([3]; lysozyme 1 mg/ml 10 min at 37° C. and lysing solution, no erythromycin, erythromycin-resistant strain) was 97.36% and the “lysed cells releasing nucleoid fibers” value ([3]; lysozyme 1 mg/ml 10 min at 37° C. and lysing solution, no erythromycin, erythromycin-susceptible strain) was 92.13%.
